For series [1], the system named is 3′ UTR of the human DMPK gene. Briefly: Single-cut screening: indel editing efficiency by Sanger sequencing and ICE analysis in primary DM1 patient myoblasts. The series is classed as cell-based. Conditions: vehicle-treated samples; for Indel efficiency: single SluCas9 sgRNA RNP in primary DM1 patient myoblasts, Sanger sequencing and ICE analysis; for indel efficiency (Sanger sequencing and ICE analysis): single-cut, SluCas9 RNP, 72 hrs post nucleofection, wild-type allele. The method in brief: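 Indels were estimated by ICE from Sanger chromatograms of PCR amplicons covering the DMPK 3′ UTR wild-type allele, using only vehicle-treated samples; sgRNAs with R2<0.9 are flagged. Samples came from primary DM1 patient myoblasts (2 × 10^5) harvested 72 h after nucleofection with 30 pmol SluCas9 and 90 pmol single sgRNA RNP.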

For series [2], the system named is CUG foci in primary DM1 patient myoblasts. Briefly: Single-cut screening: FISH staining of CUG RNA foci. The series is classed as cell-based, human. The settings on record: single sgRNA, primary DM1 patient myoblasts; for % of CUG foci free nuclei (DNA-PKi): DNA-PKi treated. The method in brief:
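CD56-purified primary DM1 patient myoblasts nucleofected with SluCas9:sgRNA RNP (30:90 pmol, single-cut), then DMSO or 3 μM DNA-PK inhibitor for 48 h. At 72 h post-nucleofection, cells fixed and stained for CUG foci with Cy3-PNA(CAG)5 probe (1 ng/μL, 80 °C), co-stained for MBNL1 and Hoechst, imaged by high-content confocal microscopy.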

In series [3] the test system is CAG foci in primary DM1 patient myoblasts. Briefly: Single-cut screening: CAG foci staining. Type of series: cell-based, human. The settings on record: single sgRNA; for % of CAG foci positive nuclei (DNA-PKi): DNA-PKi treated. In a few lines: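 Primary DM1 patient myoblasts were PFA-fixed and hybridized with […] (1 ng/μL, 15 min at 80° C) in 30% formamide/2×SSC, followed by anti-MBNL1 immunostaining and Hoechst counterstain. CAG RNA foci were quantified by high-content confocal imaging after single-cut SuCas9 sgRNA editing.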

Consider “TTTTATTCGCGAGGGTCGGGGG (guide RNA; chemistry not fully specified) [SluD92]”, for which the Indel efficiency in series [1] came to 30%. In series [2], the “% of CUG foci free nuclei (DNA-PKi)” value was 24.03% and the “% of CUG foci free nuclei (Vehicle)” value came to 24.08%. In series [3], the “% of CAG foci positive nuclei (DNA-PKi)” value is on record as 3.02% and the “% of CAG foci positive nuclei (Vehicle)” value is listed as 1.4%.
“TGCACTGAGACCCCGACATTCC (guide RNA; chemistry not fully specified) [SluD79]” had an Indel efficiency in series [1] of 2%. In addition, in series [2], the “% of CUG foci free nuclei (DNA-PKi)” value turned out to be 25.61% and the “% of CUG foci free nuclei (Vehicle)” value worked out at 11.48%. Moreover, in series [3], the “% of CAG foci positive nuclei (DNA-PKi)” value is recorded as 1.79% and the “% of CAG foci positive nuclei (Vehicle)” value was determined as 0.82%.
On the same counts, the results for “TCAGCCTGGCCGAAAGAAAGAA (guide RNA; chemistry not fully specified) [SluD04]” are 1%, 19.38%, 13.29%, 1.94% and 1.17%.
On the same counts, the results for “GCCTGTCAGCGAGTCGGAGGAC (guide RNA; chemistry not fully specified) [SluD66]” are 28%, 30.48%, 13.03%, 1.94% and 1.41%.
On the same counts, the results for “CTGCAGTTTGCCCATCCACGTC (guide RNA; chemistry not fully specified) [SluD10]” are 18%, 27.41%, 13.43%, 1.26% and 2.84%.
“ATAAATATCCAAACCGCCGAAG (guide RNA; chemistry not fully specified) [SluD63]” came in with an Indel efficiency in series [1] of 6%. Also, in series [2], the “% of CUG foci free nuclei (DNA-PKi)” value worked out at 19.22% and the “% of CUG foci free nuclei (Vehicle)” value was 9.09%. For the same substance, in series [3], the “% of CAG foci positive nuclei (DNA-PKi)” value came out at 2.95% and the “% of CAG foci positive nuclei (Vehicle)” value is 0.85%.
In the same order, the values of “TCCGGGCCCGCCCCCTAGCggc (guide RNA; as printed in the source, key not given here) [SluU36]” are 24%, 40.62%, 11.72%, 1.96% and 1.05%.
For “CCCGTTGGAAGACTGAGTGCCC (listed as DNA, chemistry not fully specified) [SluU10]”, in series [1], the Indel efficiency was 81%; the “indel efficiency (Sanger sequencing and ICE analysis)” value is given as “high editing IN4DEL efficiency”. Also, in series [2], the “% of CUG foci free nuclei (DNA-PKi)” value is reported as 72.18% and the “% of CUG foci free nuclei (Vehicle)” value was determined as 27.04%. Further, in series [3], the “% of CAG foci positive nuclei (DNA-PKi)” value is 0.66% and the “% of CAG foci positive nuclei (Vehicle)” value is recorded as 2%.
As to “CGCCCCCTAGCggccggggagg (guide RNA; as printed in the source, key not given here) [SluU41]”, the Indel efficiency in series [1] turned out to be 13%. Further, in series [2], the “% of CUG foci free nuclei (DNA-PKi)” value is reported as 47.52% and the “% of CUG foci free nuclei (Vehicle)” value is 13.34%. For the same substance, in series [3], the “% of CAG foci positive nuclei (DNA-PKi)” value worked out at 1.08% and the “% of CAG foci positive nuclei (Vehicle)” value is listed as 0.74%.
On the same counts, the results for “CCGGGCCCGCCCCCTAGCggcc (guide RNA; as printed in the source, key not given here) [SluU37]” are 15%, 30.58%, 8.09%, 2.28% and 0.72%.
In turn, “GTGCGTGGAGGATGGAACACGG (guide RNA; chemistry not fully specified) [SluD19]” showed an Indel efficiency in series [1] of 24%. Also, in series [2], the “% of CUG foci free nuclei (DNA-PKi)” value came out at 27.72% and the “% of CUG foci free nuclei (Vehicle)” value is recorded as 12.59%. In series [3], the “% of CAG foci positive nuclei (DNA-PKi)” value was 1.68% and the “% of CAG foci positive nuclei (Vehicle)” value stood at 2.32%.
Take “ATTTCTTTCTTTCGGCCAGGCT (guide RNA; chemistry not fully specified) [SluD03]”: the Indel efficiency in series [1] is 2%. Moreover, in series [2], the “% of CUG foci free nuclei (DNA-PKi)” value is given as 49.43% and the “% of CUG foci free nuclei (Vehicle)” value came to 14.38%. Further, in series [3], the “% of CAG foci positive nuclei (DNA-PKi)” value is listed as 2.14% and the “% of CAG foci positive nuclei (Vehicle)” value turned out to be 1.19%.
“GCCCCAGCCGGCTCCGCCCGCT (guide RNA; chemistry not fully specified) [SluD55]” showed an Indel efficiency in series [1] of 41%. In addition, in series [2], the “% of CUG foci free nuclei (DNA-PKi)” value is reported as 34.69% and the “% of CUG foci free nuclei (Vehicle)” value is recorded as 15.71%. Further, in series [3], the “% of CAG foci positive nuclei (DNA-PKi)” value is on record as 2.92% and the “% of CAG foci positive nuclei (Vehicle)” value stood at 3.01%.
As to “GCCCCGGAGTCGAAGACAGTTC (guide RNA; chemistry not fully specified) [SluU05]”, in series [1], the Indel efficiency amounted to 65%. For the same substance, in series [2], the “% of CUG foci free nuclei (DNA-PKi)” value is 61.16% and the “% of CUG foci free nuclei (Vehicle)” value turned out to be 26.37%. In addition, in series [3], the “% of CAG foci positive nuclei (DNA-PKi)” value amounted to 1.64% and the “% of CAG foci positive nuclei (Vehicle)” value was determined as 1.53%.
For the substance “CGCGCCAGACGCTCCCCAGAGC (listed as DNA, chemistry not fully specified) [SluD34]”, in series [1], the Indel efficiency came to 71%; the “indel efficiency (Sanger sequencing and ICE analysis)” value is “high editing IN4DEL efficiency”. In series [2], the “% of CUG foci free nuclei (DNA-PKi)” value is given as 31.92% and the “% of CUG foci free nuclei (Vehicle)” value was 15%. Moreover, in series [3], the “% of CAG foci positive nuclei (DNA-PKi)” value stood at 2.01% and the “% of CAG foci positive nuclei (Vehicle)” value is given as 3.9%.
Turning to “CTTGTGCATGACGCCCTGCTCT (listed as DNA, chemistry not fully specified) [SluD32]”, in series [1], the Indel efficiency is reported as 94%; the “indel efficiency (Sanger sequencing and ICE analysis)” value is “high editing IN4DEL efficiency”. In series [2], the “% of CUG foci free nuclei (DNA-PKi)” value is listed as 26.23% and the “% of CUG foci free nuclei (Vehicle)” value came out at 19.22%. For the same substance, in series [3], the “% of CAG foci positive nuclei (DNA-PKi)” value worked out at 1.31% and the “% of CAG foci positive nuclei (Vehicle)” value turned out to be 1.43%.
In the case of “CGCCCAGCTCCAGTCCTGTGAT (guide RNA; chemistry not fully specified) [SluU27]”, in series [1], the Indel efficiency is reported as 1%. In series [2], the “% of CUG foci free nuclei (DNA-PKi)” value was found to be 38.24% and the “% of CUG foci free nuclei (Vehicle)” value is on record as 7.71%. Moreover, in series [3], the “% of CAG foci positive nuclei (DNA-PKi)” value amounted to 1.94% and the “% of CAG foci positive nuclei (Vehicle)” value worked out at 1.64%.
In the same order, the values of “CCTGCAGTTTGCCCATCCACGT (guide RNA; chemistry not fully specified) [SluD11]” are 16%, 52.55%, 14.54%, 2.22% and 1.7%.

(Values after patent publication US20240173432A1, “Compositions and Methods for Treatment of Myotonic Dystrophy Type 1 with CRISPR/SluCas9” (Vertex Pharmaceuticals Incorporated, priority 2021, published 2024).)
